# Read-outs that look alike come from different tables or passages of the source.
# What was measured:
# Type in all cases: biochemical
# [1] = molecular target: JAK2 (Homo sapiens (Human), UniProt O60674); assay: JAK Caliper Enzyme Assay at 1 mM ATP, JAK2
# In short: (§1)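 Human recombinant kinase domain + fluorescently labelled synthetic peptide, 1 mM ATP, RT; enzyme level/time set for 20–30% phosphorylation. EDTA stop. LabChip separation, peak-height % conversion, % effect vs plate controls.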
# [2] = molecular target: JAK1 (Homo sapiens (Human), UniProt P23458); assay: JAK Caliper Enzyme Assay at 1 mM ATP, JAK1
# Sequence of JAK1 (P23458 875-1153): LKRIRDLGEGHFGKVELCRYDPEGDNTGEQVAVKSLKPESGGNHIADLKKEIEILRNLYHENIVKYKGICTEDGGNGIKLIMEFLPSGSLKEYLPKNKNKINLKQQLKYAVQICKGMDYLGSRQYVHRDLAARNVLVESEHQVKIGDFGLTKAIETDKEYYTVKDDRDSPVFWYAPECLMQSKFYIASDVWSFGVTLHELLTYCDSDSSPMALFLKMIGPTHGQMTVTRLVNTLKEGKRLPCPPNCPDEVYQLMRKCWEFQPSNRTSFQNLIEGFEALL
# In short: (§2)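 IC50 (nM) derived from percent conversion of fluorescently labelled peptide, measured by Caliper LabChip mobility-shift separation after EDTA stop. Each JAK family kinase domain (human, recombinant) run at 1 mM ATP and room temperature, conditions set to 20-30% product; DMSO wells define uninhibited baseline.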
# [3] = molecular target: JAK3 (Homo sapiens (Human), UniProt P52333); assay: JAK Caliper Enzyme Assay at 1 mM ATP, JAK3
# Sequence of JAK3 (P52333 822-1111): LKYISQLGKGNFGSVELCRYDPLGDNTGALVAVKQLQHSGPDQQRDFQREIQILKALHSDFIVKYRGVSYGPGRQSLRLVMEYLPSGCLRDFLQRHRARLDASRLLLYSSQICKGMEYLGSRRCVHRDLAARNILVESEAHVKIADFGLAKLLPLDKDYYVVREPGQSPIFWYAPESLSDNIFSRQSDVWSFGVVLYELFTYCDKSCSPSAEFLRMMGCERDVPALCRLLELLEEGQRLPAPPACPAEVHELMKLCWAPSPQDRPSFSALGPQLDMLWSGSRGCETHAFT
# In short: as §2
# [4] = molecular target: TYK2 (Homo sapiens (Human), UniProt P29597); assay: JAK Caliper Enzyme Assay at 1 mM ATP, TYK2
# Sequence of TYK2 (P29597 897-1176): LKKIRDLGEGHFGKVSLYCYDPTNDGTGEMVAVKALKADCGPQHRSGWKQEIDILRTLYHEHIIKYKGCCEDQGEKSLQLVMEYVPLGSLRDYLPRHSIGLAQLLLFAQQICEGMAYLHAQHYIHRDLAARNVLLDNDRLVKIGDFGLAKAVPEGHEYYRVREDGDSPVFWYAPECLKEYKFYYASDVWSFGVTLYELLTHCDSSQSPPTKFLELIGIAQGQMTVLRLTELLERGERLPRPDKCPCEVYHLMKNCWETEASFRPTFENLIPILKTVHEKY
# In short: as §1
# Sequence of JAK2 (O60674 849-1124): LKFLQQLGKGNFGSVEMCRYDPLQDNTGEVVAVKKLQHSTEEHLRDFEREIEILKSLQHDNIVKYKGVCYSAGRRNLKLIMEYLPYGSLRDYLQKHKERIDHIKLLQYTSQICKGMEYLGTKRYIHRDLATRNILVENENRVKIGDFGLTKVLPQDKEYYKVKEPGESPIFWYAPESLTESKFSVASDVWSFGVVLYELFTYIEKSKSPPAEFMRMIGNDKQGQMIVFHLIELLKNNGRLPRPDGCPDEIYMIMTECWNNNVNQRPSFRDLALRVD
IC50 [1],IC50 [2],IC50 [3],IC50 [4],IC50 ([1]; JAK Caliper enzyme assay),IC50 ([2]; JAK Caliper enzyme assay),IC50 ([3]; JAK Caliper enzyme assay),IC50 ([4]; JAK Caliper enzyme assay),Compound
116 nM,120 nM,> 10000 nM,7 nM,,,,,"CS(=O)(=O)N1CC(CC#N)(n2ccc(-c3nc(-c4c[nH]c5ncccc45)cc4ncccc34)n2)C1 [Example 159, [1-(methylsulfonyl)-3-{3-[7-(1H-pyrrolo[2,3-b]pyridin-3-yl)-1,6-naphthyridin-5-yl]-1H-pyrazol-1-yl}azetidin-3-yl]acetonitrile]"
4720 nM,6570 nM,> 10000 nM,235 nM,,,,,"Cn1cnc2cc(-c3cc4ncccc4c(-c4ccn(C5(CC#N)CN(S(C)(=O)=O)C5)n4)n3)cnc21 [Example 164, [3-{3-[7-(3-methyl-3H-imidazo[4,5-b]pyridin-6-yl)-1,6-naphthyridin-5-yl]-1H-pyrazol-1-yl}-1-(methylsulfonyl)azetidin-3-yl]acetonitrile]"
,,,,518 nM,1600 nM,> 10000 nM,51 nM,"N#CC[C@]1(n2cc(-c3cc(-c4nc(CO)cs4)cc4nccn34)cn2)C[C@@H](C#N)C1 [Example 467, cis-3-(cyanomethyl)-3-(4-{7-[4-(hydroxymethyl)-1,3-thiazol-2-yl]imidazo[1,2-a]pyridin-5-yl}-1H-pyrazol-1-yl)cyclobutanecarbonitrile]"
,,,,> 10000 nM,> 10000 nM,> 10000 nM,1210 nM,"CS(=O)(=O)N1CC(CC#N)(n2ncc(-c3cc(-c4ccccc4O)cc4ncccc34)n2)C1 [Example 437, [3-{4-[7-(2-hydroxyphenyl)quinolin-5-yl]-2H-1,2,3-triazol-2-yl}-1-(methylsulfonyl)azetidin-3-yl]acetonitrile]"
929 nM,3300 nM,> 10000 nM,112 nM,,,,,"N#CCC1(n2ccc(-c3nc(-c4ccc(O)c(C(N)=O)n4)cc4ncccc34)n2)CC(C#N)C1 (stereo not drawn) [Example 226, 6-(5-{1-[trans-3-cyano-1-(cyanomethyl)cyclobutyl]-1H-pyrazol-3-yl}-1,6-naphthyridin-7-yl)-3-hydroxypyridine-2-carboxamide]"
834 nM,2960 nM,> 10000 nM,67 nM,,,,,"CS(=O)(=O)N1CC(CC#N)(n2ncc(-c3cc(-c4ccc(N)nc4)cc4ncccc34)n2)C1 [Example 364, [3-{4-[7-(6-aminopyridin-3-yl)quinolin-5-yl]-2H-1,2,3-triazol-2-yl}-1-(methylsulfonyl)azetidin-3-yl]acetonitrile]"
28 nM,182 nM,3260 nM,9 nM,,,,,"Cn1cc(-c2cc3ncccc3c(-c3cn(C4(CC#N)CN(CC(F)(F)F)C4)nn3)n2)cn1 [Example 280, [3-{4-[7-(1-methyl-1H-pyrazol-4-yl)-1,6-naphthyridin-5-yl]-1H-1,2,3-triazol-1-yl}-1-(2,2,2-trifluoroethyl)azetidin-3-yl]acetonitrile]"
,,,,9840 nM,> 10000 nM,> 10000 nM,2840 nM,"N#CC[C@]1(n2ncc(-c3cc(-c4cncnc4)cc4ncccc34)n2)C[C@@H](C#N)C1 [Example 391, cis-3-(cyanomethyl)-3-{4-[7-(pyrimidin-5-yl)quinolin-5-yl]-2H-1,2,3-triazol-2-yl}cyclobutanecarbonitrile]"
666 nM,7000 nM,> 10000 nM,71 nM,,,,,"Cn1cc(-c2cc(-c3cnn(C4(CC#N)CC(C#N)C4)n3)c3cccnc3c2)c(CO)n1 (stereo not drawn) [Example 329, trans-3-(cyanomethyl)-3-(4-{7-[3-(hydroxymethyl)-1-methyl-1H-pyrazol-4-yl]quinolin-5-yl}-2H-1,2,3-triazol-2-yl)cyclobutanecarbonitrile]"
206 nM,4630 nM,> 10000 nM,33 nM,,,,,"N#CC[C@]1(n2ccc(-c3nc(-c4cc5n(n4)CCNC5)cc4ncccc34)n2)C[C@H](C#N)C1 [Example 73, trans-3-(cyanomethyl)-3-{3-[7-(4,5,6,7-tetrahydropyrazolo[1,5-a]pyrazin-2-yl)-1,6-naphthyridin-5-yl]-1H-pyrazol-1-yl}cyclobutanecarbonitrile]"
444 nM,679 nM,> 10000 nM,46 nM,,,,,"CS(=O)(=O)N1CC(CC#N)(n2ccc(-c3nc(-c4cn[nH]c4)cc4ncccc34)n2)C1 [Example 75, [1-(methylsulfonyl)-3-{3-[7-(1H-pyrazol-4-yl)-1,6-naphthyridin-5-yl]-1H-pyrazol-1-yl}azetidin-3-yl]acetonitrile]"
451 nM,1120 nM,> 10000 nM,33 nM,,,,,"CS(=O)(=O)N1CC(CC#N)(n2ccc(-c3nc(-c4ccc(N)nc4N)cc4ncccc34)n2)C1 [Example 230, [3-{3-[7-(2,6-diaminopyridin-3-yl)-1,6-naphthyridin-5-yl]-1H-pyrazol-1-yl}-1-(methylsulfonyl)azetidin-3-yl]acetonitrile]"
> 10000 nM,> 10000 nM,> 10000 nM,2040 nM,,,,,"COc1ncc(-c2cc3ncccc3c(-c3ccn(C4(CC#N)CN(S(C)(=O)=O)C4)n3)n2)cn1 [Example 237, [3-{3-[7-(2-methoxypyrimidin-5-yl)-1,6-naphthyridin-5-yl]-1H-pyrazol-1-yl}-1-(methylsulfonyl)azetidin-3-yl]acetonitrile]"
,,,,1260 nM,2700 nM,> 10000 nM,73 nM,"N#CC[C@]1(n2cc(-c3cc(-c4c[nH]nc4N)cc4nccn34)cn2)C[C@@H](C#N)C1 [Example 466, cis-3-{4-[7-(3-amino-1H-pyrazol-4-yl)imidazo[1,2-a]pyridin-5-yl]-1H-pyrazol-1-yl}-3-(cyanomethyl)cyclobutanecarbonitrile]"
86 nM,264 nM,> 10000 nM,14 nM,,,,,CN(C)c1ccc(-c2cc3ncccc3c(-c3ccn(C4(CC#N)CN(S(C)(=O)=O)C4)n3)n2)cn1 [Example 203]
5740 nM,7100 nM,> 10000 nM,1060 nM,,,,,"C[C@]1(C#N)C[C@](CC#N)(n2ccc(-c3nc(-c4cc[nH]n4)cc4ncccc34)n2)C1 [Example 36, trans-3-(cyanomethyl)-1-methyl-3-{3-[7-(1H-pyrazol-3-yl)-1,6-naphthyridin-5-yl]-1H-pyrazol-1-yl}cyclobutanecarbonitrile]"
,,,,17 nM,145 nM,3750 nM,11 nM,"Cn1cc(-c2cc3nccnc3c(-c3cnn(C4(CC#N)CN(CC#N)C4)c3)n2)cn1 [Example 480, 2,2′-(3-{4-[7-(1-methyl-1H-pyrazol-4-yl)pyrido[3,4-b]pyrazin-5-yl]-1H-pyrazol-1-yl}azetidine-1,3-diyl)diacetonitrile]"
31 nM,50 nM,2060 nM,9 nM,,,,,"N#CC[C@]1(n2ccc(-c3nc(-c4ccc(N)nc4)cc4ncccc34)n2)C[C@@H](C#N)C1 [Example 195, cis-3-{3-[7-(6-aminopyridin-3-yl)-1,6-naphthyridin-5-yl]-1H-pyrazol-1-yl}-3-(cyanomethyl)cyclobutanecarbonitrile]"
137 nM,540 nM,9270 nM,17 nM,,,,,"N#CC[C@]1(n2ncc(-c3cc(-c4c[nH]nc4CO)cc4ncccc34)n2)C[C@@H](C#N)C1 [Example 318, cis-3-(cyanomethyl)-3-(4-{7-[3-(hydroxymethyl)-1H-pyrazol-4-yl]quinolin-5-yl}-2H-1,2,3-triazol-2-yl)cyclobutanecarbonitrile]"
,,,,6880 nM,> 10000 nM,> 10000 nM,1780 nM,"Cc1cc(-c2cc(-c3cnn(C4(CC#N)CN(S(C)(=O)=O)C4)n3)c3cccnc3c2)cnc1N [Example 388, [3-{4-[7-(6-amino-5-methylpyridin-3-yl)quinolin-5-yl]-2H-1,2,3-triazol-2-yl}-1-(methylsulfonyl)azetidin-3-yl]acetonitrile]"
32 nM,39 nM,1930 nM,7 nM,,,,,"N#CC[C@]1(n2ccc(-c3nc(-c4ccnc(N)c4)cc4ncccc34)n2)C[C@@H](C#N)C1 [Example 198, cis-3-{3-[7-(2-aminopyridin-4-yl)-1,6-naphthyridin-5-yl]-1H-pyrazol-1-yl}-3-(cyanomethyl)cyclobutanecarbonitrile]"
> 10000 nM,> 10000 nM,> 10000 nM,2360 nM,,,,,"COc1ncc(-c2cc3ncccc3c(-c3ccn(C4(CC#N)CN(CC(F)(F)F)C4)n3)n2)cn1 [Example 236, [3-{3-[7-(2-methoxypyrimidin-5-yl)-1,6-naphthyridin-5-yl]-1H-pyrazol-1-yl}-1-(2,2,2-trifluoroethyl)azetidin-3-yl]acetonitrile]"
1770 nM,1960 nM,> 10000 nM,75 nM,,,,,"CO[C@H]1C[C@](CC#N)(n2ccc(-c3nc(-c4ccn[nH]4)cc4ncccc34)n2)C1 [Example 30, (trans-3-methoxy-1-{3-[7-(1H-pyrazol-5-yl)-1,6-naphthyridin-5-yl]-1H-pyrazol-1-yl}cyclobutyl)acetonitrile]"

Compound,IC50 [1],IC50 [2],IC50 [3],IC50 [4],IC50 ([1]; JAK Caliper enzyme assay),IC50 ([2]; JAK Caliper enzyme assay),IC50 ([3]; JAK Caliper enzyme assay),IC50 ([4]; JAK Caliper enzyme assay)
"N#CC[C@]1(n2cc(-c3cc(-c4cccc(C(N)=O)n4)cc4nccn34)cn2)C[C@H](C#N)C1 [Example 470, 6-(5-{1-[cis-3-cyano-1-(cyanomethyl)cyclobutyl]-1H-pyrazol-4-yl}imidazo[1,2-a]pyridin-7-yl)pyridine-2-carboxamide]",,,,,147 nM,620 nM,> 10000 nM,25 nM

# Reference: US11254668B2, “Pyrazolo[1,5-A]pyrazin-4-yl and related derivatives” (Pfizer Inc., priority 2017, dated 2022)
